Calls of active or inactive are those of the source.
Assays:
[1] = viability loss in HEK293 cells – cell-based, plate reader, cherry-picked samples, cytotoxicity control, dose response (AID 743446); format: functional
[2] = blockers of bursicon-stimulated LGR2 cAMP reporter – cell-based, HEK293, CRE-luciferase reporter, cherry pick, set 2, dose response (AID 743343); format: functional;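 also: transfected cells were stimulated with diluted bursicon conditioned medium after compound addition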
[3] = blockade of melanocortin 4 receptor signaling – cell-based, plate reader, cherry pick, counter-screen for LGR2 antagonist project, dose response (AID 743444); format: functional;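 also: transfected HEK 293 cells stimulated with alpha-MSH peptide; potency of inhibitors of the alpha-MSH evoked signal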
[4] = A549 cell cytotoxicity, dose response, cytotoxicity control, plate reader, cherry-pick, antagonist series (AID 743412); format: functional, cell-based
[5] = biological target: T1, Adenosylmethionine-8-amino-7-oxononanoate aminotransferase (Mycobacterium tuberculosis, UniProt P9WQ81); assay: Mycobacterium tuberculosis BioA enzyme inhibitor Measured in Biochemical System Using Plate Reader - 2163-02_Inhibitor_Dose_CherryPick_Activity.; format: functional, Mycobacterium tuberculosis UT205
T1 sequence (P9WQ81 whole entry): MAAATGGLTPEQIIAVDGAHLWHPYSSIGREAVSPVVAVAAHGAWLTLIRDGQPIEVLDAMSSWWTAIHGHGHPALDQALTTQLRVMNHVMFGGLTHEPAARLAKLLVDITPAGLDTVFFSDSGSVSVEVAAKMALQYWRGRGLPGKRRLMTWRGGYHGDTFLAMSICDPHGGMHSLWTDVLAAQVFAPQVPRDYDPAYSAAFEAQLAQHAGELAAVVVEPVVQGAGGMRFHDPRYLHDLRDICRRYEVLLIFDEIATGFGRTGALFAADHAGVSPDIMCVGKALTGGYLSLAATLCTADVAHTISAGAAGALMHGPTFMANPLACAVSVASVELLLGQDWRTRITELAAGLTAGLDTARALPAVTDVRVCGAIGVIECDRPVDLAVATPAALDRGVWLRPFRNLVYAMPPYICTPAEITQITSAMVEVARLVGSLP

[6] = Luminescence Cell-Based Dose Confirmation HTS to Identify Activators of 5'UTR Stem-Loop Driven Alpha-Synuclein mRNA Translation in H4 Neuroglioblastoma Cells. [Related pubchem assays: 1829 (Project Summary), 1814 (Primary HTS)]; format: functional
H4 = assay: Luminescence Cell-Based Dose Response HTS to Identify Activators of 5'UTR Stem-Loop Driven Prion Protein mRNA Translation in H4 Neuroglioblastoma Cells. [Related pubchem assays: 1829 (Project Summary), 1814 (Primary HTS)]; format: functional; settings: Homo sapiens
[7] = Luminescence Cell-Based Dose Response HTS to Identify Activators of Luciferase Translation or Activity in H4 […] Cells. [Related pubchem assays: 1829 (Project Summary), 1814 (Primary HTS)]; format: functional
P388 = assay: cells; format: functional; settings: Mus musculus
P388/ADR = assay: cells; format: functional; settings: Mus musculus
SN12K1 = assay: cells; format: functional; settings: Homo sapiens
[8] = biological target: T2, Long-chain-fatty-acid--AMP ligase FadD28 (Mycobacterium tuberculosis, UniProt P9WQ59); assay: Fluorescence polarization aasay to screen for inhibitors that compete for the binding of FadD28 to a bisubstrate Measured in Biochemical System Using Plate Reader - 2147-01_Inhibitor_Dose_CherryPick_Activity.; format: functional, Mycobacterium tuberculosis H37Rv
T2 sequence (P9WQ59 whole entry): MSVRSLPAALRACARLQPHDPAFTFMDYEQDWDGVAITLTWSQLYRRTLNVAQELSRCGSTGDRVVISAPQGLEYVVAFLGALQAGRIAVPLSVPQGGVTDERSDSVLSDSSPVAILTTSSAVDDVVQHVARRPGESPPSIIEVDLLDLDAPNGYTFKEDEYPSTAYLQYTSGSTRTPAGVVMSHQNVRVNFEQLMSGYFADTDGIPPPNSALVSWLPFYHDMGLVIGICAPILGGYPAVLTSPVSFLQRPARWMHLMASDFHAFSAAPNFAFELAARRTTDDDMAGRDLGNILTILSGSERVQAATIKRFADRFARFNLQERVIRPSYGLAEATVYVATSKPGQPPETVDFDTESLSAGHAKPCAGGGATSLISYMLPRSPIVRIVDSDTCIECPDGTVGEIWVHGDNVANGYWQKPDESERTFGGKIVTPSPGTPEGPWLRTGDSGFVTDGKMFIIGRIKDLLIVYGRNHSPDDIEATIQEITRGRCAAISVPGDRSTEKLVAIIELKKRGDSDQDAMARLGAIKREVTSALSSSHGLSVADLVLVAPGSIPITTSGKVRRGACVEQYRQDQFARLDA

[9] = HIV-1 AD8 envelope cell-cell fusion blockers – cherry-pick, dose response (AID 652062); format: functional, cell-based;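 also: luciferase signal from cell-cell fusion driven by HIV-1 clade B AD8 Env; potency is for inhibitors of fusion seen as a drop in luminescence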
[10] = blockers of HIV-1 ZM109 envelope-driven cell-cell fusion – HeLa effector, CEM target cells, luciferase, cherry-pick, dose response (AID 652058); format: functional, cell-based;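 also: luciferase signal from HIV-1 Env mediated cell-cell fusion of effector and target cells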
[11] = blockers of HIV-1 envelope-mediated cell-cell fusion – cherry-pick, dose response (AID 652057); format: functional, cell-based
Fatty acid synthase [12] = biological target: T3, Fatty acid synthase (Homo sapiens, UniProt P49327); assay: inhibition of human FAS-TE enzyme activity – biochemical, kinetic fluorescence intensity, dose response (AID 624326); format: functional;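 also: rate of fluorescence rise from hydrolysis of a fluorogenic O-methyl fluorescein ester substrate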
T3 sequence (P49327 whole entry): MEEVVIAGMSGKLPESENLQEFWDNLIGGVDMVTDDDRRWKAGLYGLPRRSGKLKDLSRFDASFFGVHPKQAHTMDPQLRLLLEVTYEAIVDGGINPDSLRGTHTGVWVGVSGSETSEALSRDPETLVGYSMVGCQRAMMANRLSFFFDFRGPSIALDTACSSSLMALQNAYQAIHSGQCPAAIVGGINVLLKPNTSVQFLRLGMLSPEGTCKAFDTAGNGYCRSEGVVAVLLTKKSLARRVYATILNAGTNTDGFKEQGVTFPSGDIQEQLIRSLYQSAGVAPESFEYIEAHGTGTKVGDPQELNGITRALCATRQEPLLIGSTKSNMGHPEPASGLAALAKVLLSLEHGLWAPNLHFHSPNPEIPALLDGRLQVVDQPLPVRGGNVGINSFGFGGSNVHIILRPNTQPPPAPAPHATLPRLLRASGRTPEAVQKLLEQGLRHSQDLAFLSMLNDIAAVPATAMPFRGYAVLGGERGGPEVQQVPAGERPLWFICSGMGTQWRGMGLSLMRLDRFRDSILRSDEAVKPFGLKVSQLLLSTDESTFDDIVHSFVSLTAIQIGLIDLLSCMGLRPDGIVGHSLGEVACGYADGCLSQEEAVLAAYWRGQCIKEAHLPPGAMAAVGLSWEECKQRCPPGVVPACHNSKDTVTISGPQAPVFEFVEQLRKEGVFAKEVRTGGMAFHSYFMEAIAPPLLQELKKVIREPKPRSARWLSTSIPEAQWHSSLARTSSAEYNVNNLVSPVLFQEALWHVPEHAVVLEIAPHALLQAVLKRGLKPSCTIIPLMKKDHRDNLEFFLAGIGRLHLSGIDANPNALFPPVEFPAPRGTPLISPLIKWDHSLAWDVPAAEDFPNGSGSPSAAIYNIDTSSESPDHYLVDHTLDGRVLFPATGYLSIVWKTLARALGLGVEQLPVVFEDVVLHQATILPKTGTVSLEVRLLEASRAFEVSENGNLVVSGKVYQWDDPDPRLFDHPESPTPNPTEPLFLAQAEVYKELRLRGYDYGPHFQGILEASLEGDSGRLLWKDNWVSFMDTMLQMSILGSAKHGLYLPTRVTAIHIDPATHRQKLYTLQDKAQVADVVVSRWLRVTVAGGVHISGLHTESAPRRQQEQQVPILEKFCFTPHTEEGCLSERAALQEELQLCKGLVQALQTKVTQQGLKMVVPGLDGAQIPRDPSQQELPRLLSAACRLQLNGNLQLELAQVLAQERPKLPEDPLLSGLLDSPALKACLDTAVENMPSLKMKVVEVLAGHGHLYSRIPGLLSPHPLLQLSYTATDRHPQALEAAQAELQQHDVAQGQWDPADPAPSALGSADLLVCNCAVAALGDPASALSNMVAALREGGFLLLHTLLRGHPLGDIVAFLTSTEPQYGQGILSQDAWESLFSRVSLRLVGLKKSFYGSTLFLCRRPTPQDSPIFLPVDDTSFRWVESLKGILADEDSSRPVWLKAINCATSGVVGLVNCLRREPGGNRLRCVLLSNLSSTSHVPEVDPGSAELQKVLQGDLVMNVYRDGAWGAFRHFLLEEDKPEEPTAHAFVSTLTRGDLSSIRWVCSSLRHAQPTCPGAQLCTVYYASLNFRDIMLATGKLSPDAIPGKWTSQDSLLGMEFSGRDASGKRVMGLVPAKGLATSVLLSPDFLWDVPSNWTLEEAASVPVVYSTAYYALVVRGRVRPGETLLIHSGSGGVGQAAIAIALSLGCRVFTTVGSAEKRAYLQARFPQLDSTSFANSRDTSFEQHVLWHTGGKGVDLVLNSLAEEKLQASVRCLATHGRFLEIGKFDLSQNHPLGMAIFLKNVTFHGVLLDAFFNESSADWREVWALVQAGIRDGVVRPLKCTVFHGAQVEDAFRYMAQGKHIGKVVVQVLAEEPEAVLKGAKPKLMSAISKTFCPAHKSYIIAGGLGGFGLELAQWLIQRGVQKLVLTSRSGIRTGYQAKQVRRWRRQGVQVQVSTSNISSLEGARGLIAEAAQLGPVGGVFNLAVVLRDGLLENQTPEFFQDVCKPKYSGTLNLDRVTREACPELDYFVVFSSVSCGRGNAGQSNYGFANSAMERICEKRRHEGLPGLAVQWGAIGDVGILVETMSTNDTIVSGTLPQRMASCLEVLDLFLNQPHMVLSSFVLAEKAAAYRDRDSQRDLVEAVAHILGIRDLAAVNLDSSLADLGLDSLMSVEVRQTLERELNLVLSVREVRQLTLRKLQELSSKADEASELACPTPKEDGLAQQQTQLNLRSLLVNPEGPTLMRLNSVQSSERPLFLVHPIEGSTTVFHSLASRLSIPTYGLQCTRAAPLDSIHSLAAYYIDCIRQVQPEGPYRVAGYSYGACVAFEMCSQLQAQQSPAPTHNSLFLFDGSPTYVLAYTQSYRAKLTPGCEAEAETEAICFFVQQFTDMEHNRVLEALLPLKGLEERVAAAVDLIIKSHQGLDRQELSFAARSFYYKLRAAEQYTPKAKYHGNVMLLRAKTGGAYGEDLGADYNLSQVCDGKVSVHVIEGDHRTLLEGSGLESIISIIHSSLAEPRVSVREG

[13] = biological target: DNA dC->dU-editing enzyme APOBEC-3G (Homo sapiens, UniProt Q9HC16); assay: Dose Response confirmation of small molecule APOBEC3G DNA Deaminase Inhibitors via a fluorescence-based single-stranded DNA deaminase assay. [Related pubchem assays (depositor defined):AID493012, AID493028]; format: functional
Chain of DNA dC->dU-editing enzyme APOBEC-3G (Q9HC16 whole entry): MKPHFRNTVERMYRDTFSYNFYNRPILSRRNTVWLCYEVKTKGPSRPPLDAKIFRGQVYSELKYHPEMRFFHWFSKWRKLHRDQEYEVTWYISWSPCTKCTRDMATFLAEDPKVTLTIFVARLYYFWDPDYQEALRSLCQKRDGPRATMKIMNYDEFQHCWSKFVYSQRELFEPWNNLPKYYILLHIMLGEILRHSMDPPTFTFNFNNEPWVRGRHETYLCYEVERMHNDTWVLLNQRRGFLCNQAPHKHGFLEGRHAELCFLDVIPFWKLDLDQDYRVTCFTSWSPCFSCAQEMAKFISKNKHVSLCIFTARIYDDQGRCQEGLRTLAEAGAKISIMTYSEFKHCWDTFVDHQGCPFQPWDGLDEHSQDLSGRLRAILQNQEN

[14] = biological target: Eukaryotic translation initiation factor 4E (Mus musculus, UniProt P63073); assay: blockers of eIF4G binding by eIF4E – biochemical, TR-FRET, dose response (AID 855); format: functional;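 also: potency for disrupting eIF4E binding to eIF4GI seen as loss of FRET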
Chain of Eukaryotic translation initiation factor 4E (P63073 whole entry): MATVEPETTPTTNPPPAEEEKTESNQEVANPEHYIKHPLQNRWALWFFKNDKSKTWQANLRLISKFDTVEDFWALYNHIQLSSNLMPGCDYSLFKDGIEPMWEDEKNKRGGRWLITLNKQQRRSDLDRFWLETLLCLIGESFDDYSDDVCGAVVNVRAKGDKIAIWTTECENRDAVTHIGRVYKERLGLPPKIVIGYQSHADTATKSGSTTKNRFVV

Fatty acid synthase [15] = biological target: T3, Fatty acid synthase; assay: inhibition of human FAS-TE enzyme activity – biochemical, endpoint fluorescence intensity, uHTS hits, dose response (AID 624327); format: functional;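 also: fluorescence from hydrolysis of an O-methyl fluorescein acyl ester substrate by the enzyme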

Q: For CCc1cc(-c2ccc3c(c2)COc2c4ccccc4nn2-3)on1, which AC50 [1] is on record?
A: 47.8 µM (active)

Q: What about the AC50 [2] of the same molecule?
A: 22.7 µM (active)

Q: What about the AC50 [3] of the same molecule?
A: 40.4 µM (active)

Q: What about the AC50 [4] of the same molecule?
A: > 52 µM (inactive)

Q: Which AC50 [5] does the source give for CC1Cc2nc(SCC(=O)N3CCOCC3)n(-c3ccccc3)c(=O)c2S1 (stereo not given) here?
A: 5.31 µM (active)

Q: Which EC50 [6] does the source give for O=C(NC(=S)NC1CCCCCC1)c1cncc(Br)c1 here?
A: 39.6 µM (active)

Q: And the EC50 (H4)?
A: 7.48 µM (active)

Q: What about the EC50 [7] of the same molecule?
A: 76.3 µM (active)

Q: For CNC(=O)ON(C(C)=O)C(=O)NC [CARACEMIDE], which GI50 (P388) is on record?
A: 16.4 µM (inactive)

Q: And the GI50 (P388/ADR)?
A: 21.4 µM (inactive)

Q: What about the GI50 (SN12K1) of the same molecule?
A: 50.9 µM (inactive)

Q: For COc1ccc(/C=C/C(=O)N(C)Cc2cccs2)cc1S(=O)(=O)N1CCOCC1, which AC50 [8] is on record?
A: 42.6 µM (active)

Q: For COc1ccc(NC(=O)Nc2ccc3c(c2)C(=O)N([C@@H](C)CO)C[C@H](C)[C@H](CN(C)Cc2ccncc2)OCCCC[C@H](C)O3)cc1, which AC50 [9] is on record?
A: 12.7 µM (active)

Q: What about the AC50 [10] of the same molecule?
A: 0.412 µM (active)

Q: And the AC50 [11]?
A: 0.541 µM (active)

Q: With COc1ccc(-c2nc3ccc([N+](=O)[O-])cc3c(=O)[nH]2)cc1 as the molecule, how does the GI50 (P388) read?
A: > 100 µM (inactive)

Q: What about the GI50 (P388/ADR) of the same molecule?
A: > 100 µM (inactive)

Q: And the GI50 (SN12K1)?
A: 26 µM (inactive)

Q: With O=C(CSc1nc2c(c(=O)n1-c1ccc(Cl)cc1)SCC2)N1CCOCC1 as the molecule, how does the AC50 [5] read?
A: 6.81 µM (active)

Q: Which GI50 (P388) does the source give for C=C1C(C)C2C(Cc3ccccc3)NC(=O)C23C(OC(C)=O)/C=C/C(C)(O)CC(C)C/C=C/C3C1O (stereo not given) here?
A: 0.608 µM (active)

Q: What about the GI50 (P388/ADR) of the same molecule?
A: 2.58 µM (inactive)

Q: And the GI50 (SN12K1)?
A: 0.0294 µM (active)

Q: Which GI50 (P388) does the source give for O=C1CCC23CC(C=CC=C12)n1c(=O)n(-c2ccccc2)c(=O)n13 (stereo not given) here?
A: 49.9 µM (inactive)

Q: What about the GI50 (P388/ADR) of the same molecule?
A: 31 µM (inactive)

Q: And the GI50 (SN12K1)?
A: > 100 µM (inactive)

Q: Which IC50 (Fatty acid synthase [12]) does the source give for CCS(=O)(=O)c1ccc2oc(Nc3ccc(C(C)C)cc3)nc2c1 here?
A: 12.6 µM (active)

Q: What about the IC50 [13] of the same molecule?
A: 20.7 µM (active)

Q: And the IC50 [14]?
A: > 64 µM (inactive)

Q: And the IC50 (Fatty acid synthase [15])?
A: 22.3 µM (inactive)

Q: For Nn1c(SC/C=C/c2ccccc2)nnc1-c1cccnc1, which AC50 [5] is on record?
A: 0.311 µM (active)

Source: ChEMBL document CHEMBL1201862, “PubChem BioAssay data set” (2004)
